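Each compound was tested at five concentrations against cells in 96-well plates for 48 hours. TGI is the concentration that stops growth completely.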
What was measured:
Assay in all cases: growth of human tumour cells (NCI), 48 h
786-0 renal = system: 786-0 renal
A498 renal = system: A498 renal
ACHN renal = system: ACHN renal
CAKI-1 renal = system: CAKI-1 renal
CCRF-CEM leukemia = system: CCRF-CEM leukemia
COLO 205 colon = system: COLO 205 colon
DLD-1 colon = system: DLD-1 colon
DMS 114 small cell lung = system: DMS 114 small cell lung
EKVX NSCLC = system: EKVX NSCLC
HCC-2998 colon = system: HCC-2998 colon
HCT-116 colon = system: HCT-116 colon
HCT-15 colon = system: HCT-15 colon
HOP-18 NSCLC = system: HOP-18 NSCLC
HOP-62 NSCLC = system: HOP-62 NSCLC
HOP-92 NSCLC = system: HOP-92 NSCLC
HT29 colon = system: HT29 colon
IGROV1 ovarian = system: IGROV1 ovarian
K-562 leukemia = system: K-562 leukemia
KM12 colon = system: KM12 colon
KM20L2 colon = system: KM20L2 colon
LOX IMVI melanoma = system: LOX IMVI melanoma
LXFL 529 NSCLC = system: LXFL 529 NSCLC
M14 melanoma = system: M14 melanoma
MALME-3M melanoma = system: MALME-3M melanoma
MOLT-4 leukemia = system: MOLT-4 leukemia
NCI-H23 lung = system: NCI-H23 lung
NCI-H460 lung = system: NCI-H460 lung
NCI-H522 lung = system: NCI-H522 lung
OVCAR-3 ovarian = system: OVCAR-3 ovarian
OVCAR-4 ovarian = system: OVCAR-4 ovarian
OVCAR-5 ovarian = system: OVCAR-5 ovarian
OVCAR-8 ovarian = system: OVCAR-8 ovarian
RPMI-8226 leukemia = system: RPMI-8226 leukemia
RXF 393 renal = system: RXF 393 renal
SF-268 CNS = system: SF-268 CNS
SF-295 CNS = system: SF-295 CNS
SF-539 CNS = system: SF-539 CNS
SK-MEL-28 melanoma = system: SK-MEL-28 melanoma
SK-MEL-5 melanoma = system: SK-MEL-5 melanoma
SN12C renal = system: SN12C renal
SNB-19 CNS = system: SNB-19 CNS
SNB-75 CNS = system: SNB-75 CNS
SNB-78 CNS = system: SNB-78 CNS
SR leukemia = system: SR leukemia
SW-620 colon = system: SW-620 colon
TK-10 renal = system: TK-10 renal
U251 CNS = system: U251 CNS
UACC-257 melanoma = system: UACC-257 melanoma
UACC-62 melanoma = system: UACC-62 melanoma
UO-31 renal = system: UO-31 renal
A549 NSCLC = system: A549 NSCLC
BT-549 breast = system: BT-549 breast
DMS 273 small cell lung = system: DMS 273 small cell lung
DU-145 prostate = system: DU-145 prostate
HS 578T breast = system: HS 578T breast
M19-MEL melanoma = system: M19-MEL melanoma
MCF7 breast = system: MCF7 breast
MDA-MB-231 breast = system: MDA-MB-231 breast
MDA-MB-435 = system: MDA-MB-435
MDA-N = system: MDA-N
NCI-H226 lung = system: NCI-H226 lung
NCI/ADR-RES ovarian = system: NCI/ADR-RES ovarian
PC-3 prostate = system: PC-3 prostate
SK-MEL-2 melanoma = system: SK-MEL-2 melanoma
SK-OV-3 ovarian = system: SK-OV-3 ovarian
T-47D breast = system: T-47D breast
XF 498 CNS = system: XF 498 CNS
HL-60(TB) leukemia = system: HL-60(TB) leukemia

Compound: O=C1[C@@H]2C(c3ccccc3[N+](=O)[O-])=NO[C@@H]2C(=O)N1c1ccc(Cc2ccc(N3C(=O)[C@H]4C(c5ccccc5[N+](=O)[O-])=NO[C@H]4C3=O)cc2)cc1
- TGI (786-0 renal): > 100 µM
- TGI (A498 renal): > 100 µM
- TGI (ACHN renal): > 100 µM
- TGI (CAKI-1 renal): > 100 µM
- TGI (CCRF-CEM leukemia): > 100 µM
- TGI (COLO 205 colon): > 100 µM
- TGI (DLD-1 colon): > 100 µM
- TGI (DMS 114 small cell lung): > 100 µM
- TGI (EKVX NSCLC): > 100 µM
- TGI (HCC-2998 colon): > 100 µM
- TGI (HCT-116 colon): > 100 µM
- TGI (HCT-15 colon): > 100 µM
- TGI (HOP-18 NSCLC): > 100 µM
- TGI (HOP-62 NSCLC): > 100 µM
- TGI (HOP-92 NSCLC): > 100 µM
- TGI (HT29 colon): > 100 µM
- TGI (IGROV1 ovarian): > 100 µM
- TGI (K-562 leukemia): > 100 µM
- TGI (KM12 colon): > 100 µM
- TGI (KM20L2 colon): > 100 µM
- TGI (LOX IMVI melanoma): > 100 µM
- TGI (LXFL 529 NSCLC): > 100 µM
- TGI (M14 melanoma): > 100 µM
- TGI (MALME-3M melanoma): > 100 µM
- TGI (MOLT-4 leukemia): > 100 µM
- TGI (NCI-H23 lung): > 100 µM
- TGI (NCI-H460 lung): > 100 µM
- TGI (NCI-H522 lung): > 100 µM
- TGI (OVCAR-3 ovarian): > 100 µM
- TGI (OVCAR-4 ovarian): > 100 µM
- TGI (OVCAR-5 ovarian): > 100 µM
- TGI (OVCAR-8 ovarian): > 100 µM
- TGI (RPMI-8226 leukemia): > 100 µM
- TGI (RXF 393 renal): > 100 µM
- TGI (SF-268 CNS): > 100 µM
- TGI (SF-295 CNS): > 100 µM
- TGI (SF-539 CNS): > 100 µM
- TGI (SK-MEL-28 melanoma): > 100 µM
- TGI (SK-MEL-5 melanoma): > 100 µM
- TGI (SN12C renal): > 100 µM
- TGI (SNB-19 CNS): > 100 µM
- TGI (SNB-75 CNS): > 100 µM
- TGI (SNB-78 CNS): > 100 µM
- TGI (SR leukemia): > 100 µM
- TGI (SW-620 colon): > 100 µM
- TGI (TK-10 renal): > 100 µM
- TGI (U251 CNS): > 100 µM
- TGI (UACC-257 melanoma): > 100 µM
- TGI (UACC-62 melanoma): > 100 µM
- TGI (UO-31 renal): > 100 µM

Compound: NC(=S)N1N=C2c3ccccc3CCC[C@H]2[C@@H]1c1ccccc1
- TGI (786-0 renal): 21.8 µM
- TGI (A498 renal): 23.3 µM
- TGI (A549 NSCLC): > 53.7 µM
- TGI (ACHN renal): 30.6 µM
- TGI (BT-549 breast): 19.7 µM
- TGI (CCRF-CEM leukemia): 24.3 µM
- TGI (COLO 205 colon): 6.32 µM
- TGI (DLD-1 colon): 25.7 µM
- TGI (DMS 114 small cell lung): 50.8 µM
- TGI (DMS 273 small cell lung): 11.3 µM
- TGI (DU-145 prostate): 9.27 µM
- TGI (EKVX NSCLC): 70.2 µM
- TGI (HCC-2998 colon): 14 µM
- TGI (HCT-116 colon): 12.7 µM
- TGI (HCT-15 colon): 26.2 µM
- TGI (HOP-62 NSCLC): 19.2 µM
- TGI (HS 578T breast): 17.4 µM
- TGI (HT29 colon): 6.18 µM
- TGI (IGROV1 ovarian): 25 µM
- TGI (K-562 leukemia): > 37.9 µM
- TGI (KM12 colon): 18.3 µM
- TGI (KM20L2 colon): 5.22 µM
- TGI (LOX IMVI melanoma): 16.4 µM
- TGI (LXFL 529 NSCLC): 18.2 µM
- TGI (M14 melanoma): 10.1 µM
- TGI (M19-MEL melanoma): > 100 µM
- TGI (MALME-3M melanoma): 21.5 µM
- TGI (MCF7 breast): 25.3 µM
- TGI (MDA-MB-231 breast): 17.1 µM
- TGI (MDA-MB-435): 0.326 µM
- TGI (MDA-N): 0.279 µM
- TGI (MOLT-4 leukemia): 18.9 µM
- TGI (NCI-H226 lung): 11.1 µM
- TGI (NCI-H23 lung): 27.8 µM
- TGI (NCI-H460 lung): 12.1 µM
- TGI (NCI-H522 lung): 1.42 µM
- TGI (NCI/ADR-RES ovarian): 3 µM
- TGI (OVCAR-3 ovarian): 1.94 µM
- TGI (OVCAR-4 ovarian): 23.2 µM
- TGI (OVCAR-5 ovarian): 55.5 µM
- TGI (OVCAR-8 ovarian): 17.4 µM
- TGI (PC-3 prostate): 18.3 µM
- TGI (RPMI-8226 leukemia): 17.2 µM
- TGI (RXF 393 renal): 6.68 µM
- TGI (SF-268 CNS): 39.4 µM
- TGI (SF-295 CNS): 10.6 µM
- TGI (SF-539 CNS): 2.61 µM
- TGI (SK-MEL-2 melanoma): 5.94 µM
- TGI (SK-MEL-28 melanoma): 32.6 µM
- TGI (SK-MEL-5 melanoma): 8.93 µM
- TGI (SK-OV-3 ovarian): 2.77 µM
- TGI (SN12C renal): 19.7 µM
- TGI (SNB-19 CNS): 25.2 µM
- TGI (SNB-75 CNS): 0.9 µM
- TGI (SNB-78 CNS): 61.9 µM
- TGI (SR leukemia): > 32.9 µM
- TGI (SW-620 colon): 15.3 µM
- TGI (T-47D breast): 29.1 µM
- TGI (TK-10 renal): 52 µM
- TGI (U251 CNS): 17.7 µM
- TGI (UACC-257 melanoma): 25.7 µM
- TGI (UO-31 renal): 15.8 µM
- TGI (XF 498 CNS): 16.5 µM

Compound: COc1ccc(C(=O)C(C(=O)C(=O)NCCCNC(=O)C(=O)C(C(=O)c2ccc(OC)cc2)c2ccc(OC)cc2)c2ccc(OC)cc2)cc1 (centres undefined)
- TGI (786-0 renal): > 100 µM
- TGI (A549 NSCLC): > 100 µM
- TGI (CCRF-CEM leukemia): > 100 µM
- TGI (COLO 205 colon): > 100 µM
- TGI (DLD-1 colon): > 100 µM
- TGI (DMS 114 small cell lung): > 100 µM
- TGI (DMS 273 small cell lung): > 100 µM
- TGI (EKVX NSCLC): > 100 µM
- TGI (HCC-2998 colon): > 100 µM
- TGI (HCT-116 colon): > 100 µM
- TGI (HCT-15 colon): > 100 µM
- TGI (HL-60(TB) leukemia): > 100 µM
- TGI (HOP-18 NSCLC): > 100 µM
- TGI (HOP-62 NSCLC): > 100 µM
- TGI (HOP-92 NSCLC): > 100 µM
- TGI (HT29 colon): > 100 µM
- TGI (IGROV1 ovarian): > 100 µM
- TGI (K-562 leukemia): > 100 µM
- TGI (KM12 colon): > 100 µM
- TGI (KM20L2 colon): > 100 µM
- TGI (LOX IMVI melanoma): > 100 µM
- TGI (LXFL 529 NSCLC): > 100 µM
- TGI (M14 melanoma): > 100 µM
- TGI (MALME-3M melanoma): > 100 µM
- TGI (MOLT-4 leukemia): > 100 µM
- TGI (NCI-H226 lung): > 100 µM
- TGI (NCI-H23 lung): > 100 µM
- TGI (NCI-H460 lung): > 100 µM
- TGI (NCI-H522 lung): > 100 µM
- TGI (OVCAR-3 ovarian): > 100 µM
- TGI (OVCAR-4 ovarian): > 100 µM
- TGI (OVCAR-5 ovarian): > 100 µM
- TGI (OVCAR-8 ovarian): > 100 µM
- TGI (RPMI-8226 leukemia): > 100 µM
- TGI (SF-268 CNS): > 100 µM
- TGI (SF-295 CNS): > 100 µM
- TGI (SF-539 CNS): > 100 µM
- TGI (SK-MEL-2 melanoma): > 100 µM
- TGI (SK-MEL-28 melanoma): > 100 µM
- TGI (SK-OV-3 ovarian): > 100 µM
- TGI (SNB-19 CNS): > 100 µM
- TGI (SNB-75 CNS): > 100 µM
- TGI (SNB-78 CNS): > 100 µM
- TGI (SR leukemia): > 100 µM
- TGI (SW-620 colon): > 100 µM
- TGI (TK-10 renal): > 100 µM
- TGI (U251 CNS): > 100 µM
- TGI (UACC-257 melanoma): > 100 µM
- TGI (UACC-62 melanoma): > 100 µM
- TGI (UO-31 renal): > 100 µM
- TGI (XF 498 CNS): > 100 µM

Source: PubChem BioAssay (NCI)
